Experimental data taken from US9480758B2, “Diagnostic agents selective against metalloproteases” (BRACCO IMAGING S.P.A., priority 2008, dated 2016).
Where two headings read alike, the source gives them in different places.

Key:
[1] = biological target: MMP-13 (Homo sapiens, UniProt P45452); assay: MMP inhibition assay, fluorogenic substrate FS-6; type: biochemical; conditions: MMP-13 0.3 nM, inhibitor incubated 4 h at 25° C., substrate Mca-Lys-Pro-Leu-Gly-Leu-Dap(Dnp)-Ala-Arg-NH2 2 μM
Experimental: (§1) As reported therein, the inhibitory activity of the compounds of the invention was evaluated on the known fluorogenic substrate (Mca-Lys-Pro-Leu-Gly-Leu-Dpa-Ala-Arg-NH2), shortly referred to as FS-6 (see, as a reference, U. Neumann, Analytical Biochem. 2004, 328, 166-173).
(§2) Recombinant human progelatinase A (pro-MMP-2) and B (pro-MMP-9) from transfected mouse myeloma cells, MMP-16 and MMP-14 catalytic domains were supplied by Prof. Gillian Murphy (Department of Oncology, University of Cambridge, UK). Pro-MMP-1, pro-MMP-8, pro-MMP-3 and pro-MMP-13 were purchased from Calbiochem, MMP-12 was furnished from RDSystems.
(§3) Pro-MMP-3 was activated with trypsin 5 μg/mL for 30 min at 37 C.° followed by soybean trypsin inhibitor (SBTI) 62 μg/mL.
(§4) For assay measurements, the inhibitor stock solutions (DMSO, 100 mM) were further diluted, at 7 different concentrations (0.01 nM-300 μM) for each MMP in the fluorimetric assay buffer (FAB: Tris 50 mM, pH=7.5, NaCl 150 mM, CaCl2 10 mM, Brij 35 0.05% and DMSO 1%). Activated enzyme (final concentration 2.9 nM for MMP-2, 2.7 nM for MMP-9, 1.5 nM for MMP-8, 0.3 nM for MMP-13, 5 nM for MMP-3, 1 nM for MMP-14cd, 15 nM for MMP-16cd and 2.0 nM for MMP-1, 1 nM for MMP12) and inhibitor solutions were incubated in the assay buffer for 4 h at 25° C. After the addition of 200 μM solution of the fluorogenic substrate Mca-Arg-Pro-Lys-Pro-Val-Glu-Nva-Trp-Arg-Lys(Dnp)-NH2 (Sigma) for MMP-3 and Mca-Lys-Pro-Leu-Gly-Leu-Dap(Dnp)-Ala-Arg-NH2 (Bachem) (Neumann, U.; Kubota, H.; Frei, K.; Ganu, V.; Leppert, D. Anal. Biochem. 2004, 328, 166) for all the other enzymes in DMSO (final concentration 2 μM), the hydrolysis was monitored every 15 sec. for 20 min. recording the increase in fluorescence (λex=325 nm, λem=395 nm) using a Molecular Device SpectraMax Gemini XS plate reader. The assays were performed in triplicate in a total volume of 200 μl per well in 96-well microtitre plates (Corning, black, NBS). Control wells lack inhibitor. The MMP inhibition activity was expressed in relative fluorescent units (RFU). Percent of inhibition was calculated from control reactions without the inhibitor. IC50 was determined using the formula: Vi/Vo=1/(1+[I]/IC50), where Vi is the initial velocity of substrate cleavage in the presence of the inhibitor at concentration [I] and Vo is the initial velocity in the absence of the inhibitor. Results were analyzed using SoftMax Pro software and GraFit software.

[2] = biological target: T1, MMP-2 (Homo sapiens, UniProt P08253); assay: MMP inhibition assay, fluorogenic substrate FS-6; type: biochemical; parameters: purchased supplied by Prof; Gillian Murphy (Department of Oncology, University of Cambridge, UK); host or cells: transfected mouse myeloma cells; conditions: activated pro-MMP-2 2.9 nM, inhibitor incubated 4 h at 25° C., substrate Mca-Lys-Pro-Leu-Gly-Leu-Dap(Dnp)-Ala-Arg-NH2 2 μM
T1 sequence (P08253 110-660): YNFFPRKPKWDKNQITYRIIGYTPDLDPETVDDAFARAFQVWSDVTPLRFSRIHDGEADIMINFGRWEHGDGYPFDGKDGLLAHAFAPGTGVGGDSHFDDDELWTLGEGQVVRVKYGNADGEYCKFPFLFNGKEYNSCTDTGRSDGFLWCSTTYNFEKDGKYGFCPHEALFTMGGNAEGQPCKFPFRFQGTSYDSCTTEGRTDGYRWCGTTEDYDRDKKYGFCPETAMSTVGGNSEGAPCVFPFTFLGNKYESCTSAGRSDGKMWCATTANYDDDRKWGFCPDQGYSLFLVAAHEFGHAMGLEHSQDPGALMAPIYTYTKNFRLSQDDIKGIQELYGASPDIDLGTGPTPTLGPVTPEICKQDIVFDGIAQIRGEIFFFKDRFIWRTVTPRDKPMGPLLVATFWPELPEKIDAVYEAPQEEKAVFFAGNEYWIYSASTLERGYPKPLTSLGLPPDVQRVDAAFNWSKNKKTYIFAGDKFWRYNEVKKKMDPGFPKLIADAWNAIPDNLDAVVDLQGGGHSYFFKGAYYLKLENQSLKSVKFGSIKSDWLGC
Experimental: as §1, §2, §3, §4

[3] = biological target: T1, MMP-2; conditions: isolated enzyme, fluorogenic substrate FS-1, literature value; cited from earlier work
[4] = biological target: MMP-14 (Homo sapiens, UniProt P50281); conditions: isolated enzyme, fluorogenic substrate FS-1, literature value; cited from earlier work
[5] = biological target: T2, MMP-8 (Homo sapiens, UniProt P22894); assay: MMP inhibition assay, fluorogenic substrate FS-6; type: biochemical; conditions: MMP-8 1.5 nM, inhibitor incubated 4 h at 25° C., substrate Mca-Lys-Pro-Leu-Gly-Leu-Dap(Dnp)-Ala-Arg-NH2 2 μM
T2 construct: purchased Calbiochem
T2 sequence (P22894 101-467): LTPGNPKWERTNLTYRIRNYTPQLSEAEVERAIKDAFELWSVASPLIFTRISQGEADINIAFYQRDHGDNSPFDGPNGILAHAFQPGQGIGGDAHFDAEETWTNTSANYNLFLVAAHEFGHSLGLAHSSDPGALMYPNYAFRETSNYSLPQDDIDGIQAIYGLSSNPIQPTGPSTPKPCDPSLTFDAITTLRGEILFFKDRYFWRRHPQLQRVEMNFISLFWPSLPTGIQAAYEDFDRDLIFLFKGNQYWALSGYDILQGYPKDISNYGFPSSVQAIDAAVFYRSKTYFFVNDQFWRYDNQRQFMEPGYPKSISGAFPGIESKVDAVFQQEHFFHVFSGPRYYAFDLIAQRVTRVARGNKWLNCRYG
Experimental: as §1, §2, §3, §4

[6] = biological target: T3, MMP-9 (Homo sapiens, UniProt P14780); assay: MMP inhibition assay, fluorogenic substrate FS-6; type: biochemical; conditions: MMP-9 2.7 nM, inhibitor incubated 4 h at 25° C., substrate Mca-Lys-Pro-Leu-Gly-Leu-Dap(Dnp)-Ala-Arg-NH2 2 μM
T3 construct: purchased supplied by Prof; Gillian Murphy (Department of Oncology, University of Cambridge, UK); host or cells: transfected mouse myeloma cells
T3 sequence (P14780 107-707 limits assumed): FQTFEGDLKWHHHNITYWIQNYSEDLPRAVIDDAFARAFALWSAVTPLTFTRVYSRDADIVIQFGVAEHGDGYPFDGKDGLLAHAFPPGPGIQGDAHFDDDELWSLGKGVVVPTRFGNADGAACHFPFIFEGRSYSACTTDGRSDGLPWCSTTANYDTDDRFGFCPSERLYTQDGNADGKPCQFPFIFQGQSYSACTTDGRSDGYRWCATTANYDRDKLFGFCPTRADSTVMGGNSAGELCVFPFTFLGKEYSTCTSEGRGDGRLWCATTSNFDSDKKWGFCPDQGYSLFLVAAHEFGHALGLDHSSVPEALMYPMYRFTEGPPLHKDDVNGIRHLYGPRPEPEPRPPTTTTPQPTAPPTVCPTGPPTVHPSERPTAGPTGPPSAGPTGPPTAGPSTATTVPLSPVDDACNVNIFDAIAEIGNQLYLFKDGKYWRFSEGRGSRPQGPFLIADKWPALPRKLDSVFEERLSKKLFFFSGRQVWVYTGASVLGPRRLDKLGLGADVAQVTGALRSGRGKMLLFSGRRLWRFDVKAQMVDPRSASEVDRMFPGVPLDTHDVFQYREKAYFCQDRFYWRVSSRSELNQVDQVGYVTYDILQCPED
Experimental: as §1, §2, §3, §4

[7] = biological target: T4, MMP-12 (Homo sapiens, UniProt P39900); assay: MMP inhibition assay, fluorogenic substrate FS-6; type: biochemical; conditions: MMP12 1 nM, inhibitor incubated 4 h at 25° C., substrate Mca-Lys-Pro-Leu-Gly-Leu-Dap(Dnp)-Ala-Arg-NH2 2 μM
T4 construct: purchased RDSystems
T4 sequence (P39900 106-470): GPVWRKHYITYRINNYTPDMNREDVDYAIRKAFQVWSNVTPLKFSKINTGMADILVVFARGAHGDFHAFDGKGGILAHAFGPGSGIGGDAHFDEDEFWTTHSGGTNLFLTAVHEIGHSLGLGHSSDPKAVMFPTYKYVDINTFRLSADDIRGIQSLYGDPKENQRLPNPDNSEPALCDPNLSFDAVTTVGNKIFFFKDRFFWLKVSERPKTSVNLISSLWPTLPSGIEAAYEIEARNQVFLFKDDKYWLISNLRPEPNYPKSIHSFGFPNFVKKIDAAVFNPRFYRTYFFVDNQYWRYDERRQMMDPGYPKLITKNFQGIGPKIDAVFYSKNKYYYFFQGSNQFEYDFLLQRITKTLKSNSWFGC
Experimental: as §1, §2, §4

[8] = biological target: T5, MMP-14 catalytic domain (Homo sapiens, UniProt P50281); assay: MMP inhibition assay, fluorogenic substrate FS-6; type: biochemical; conditions: MMP-14cd 1 nM, inhibitor incubated 4 h at 25° C., substrate Mca-Lys-Pro-Leu-Gly-Leu-Dap(Dnp)-Ala-Arg-NH2 2 μM
T5 construct: MMP-16 and MMP-14 catalytic domains were supplied by Prof; Gillian Murphy; purchased supplied by Prof; Gillian Murphy (Department of Oncology, University of Cambridge, UK)
Experimental: as §1, §2, §4

[9] = biological target: T6, MMP-16 catalytic domain (Homo sapiens, UniProt P51512); assay: MMP inhibition assay, fluorogenic substrate FS-6; type: biochemical; conditions: MMP-16cd 15 nM, inhibitor incubated 4 h at 25° C., substrate Mca-Lys-Pro-Leu-Gly-Leu-Dap(Dnp)-Ala-Arg-NH2 2 μM
T6 construct: MMP-16 and MMP-14 catalytic domains were supplied by Prof; Gillian Murphy; purchased supplied by Prof; Gillian Murphy (Department of Oncology, University of Cambridge, UK)
T6 sequence (P51512 120-292 limits assumed): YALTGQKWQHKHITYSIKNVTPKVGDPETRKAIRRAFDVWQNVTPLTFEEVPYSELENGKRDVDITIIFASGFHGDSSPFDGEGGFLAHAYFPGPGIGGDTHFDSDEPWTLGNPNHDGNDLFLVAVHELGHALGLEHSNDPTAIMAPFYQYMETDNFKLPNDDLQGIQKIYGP
Experimental: as §1, §2, §4

[10] = biological target: T7, MMP-3 (Homo sapiens, UniProt P08254); assay: MMP inhibition assay, fluorogenic substrate; type: biochemical; conditions: MMP-3 5 nM, inhibitor incubated 4 h at 25° C., substrate Mca-Arg-Pro-Lys-Pro-Val-Glu-Nva-Trp-Arg-Lys(Dnp)-NH2
T7 construct: purchased Calbiochem
T7 sequence (P08254 100-477): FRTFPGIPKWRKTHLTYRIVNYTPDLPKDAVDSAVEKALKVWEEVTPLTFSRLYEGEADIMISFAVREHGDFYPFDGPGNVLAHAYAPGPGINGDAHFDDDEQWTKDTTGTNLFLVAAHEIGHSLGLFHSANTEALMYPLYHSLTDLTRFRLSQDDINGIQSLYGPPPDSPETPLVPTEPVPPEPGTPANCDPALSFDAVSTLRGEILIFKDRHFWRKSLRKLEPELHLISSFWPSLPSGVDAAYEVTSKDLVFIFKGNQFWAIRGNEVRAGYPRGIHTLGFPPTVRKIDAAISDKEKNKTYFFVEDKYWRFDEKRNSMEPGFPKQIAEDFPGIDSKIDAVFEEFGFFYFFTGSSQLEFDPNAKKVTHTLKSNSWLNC
Experimental: as §2, §3
as §4, with “The MMP inhibition activity was expressed in relative fluorescent units (RFU).” left out

Compound	IC50 [1]	IC50 [2]	IC50 [3]	IC50 [4]	IC50 [5]	IC50 [6]	IC50 [7]	IC50 [8]	IC50 [9]	IC50 [10]
CC[N+]1=C(/C=C/C=C/C=C2/N(CCCCCC(=O)NCC[C@H](C(=O)NO)N(OC(C)C)S(=O)(=O)c3ccc(-c4ccc(OC)cc4)cc3)c3ccc4c(S(=O)(=O)O)cc(S(=O)(=O)O)cc4c3C2(C)C)C(C)(C)c2c1ccc1c(S(=O)(=O)[O-])cc(S(=O)(=O)O)cc21 [Compound 5]	82 ± 13 nM	56 ± 8 nM	–	–	–	–	–	–	–	–
CC(C)ON(C(CCNC(=O)OCc1ccccc1)C(=O)NO)S(=O)(=O)c1ccc(-c2ccccc2)cc1 (centres unmarked) [compound (5b)]	–	–	0.41 nM	7.7 nM	–	–	–	–	–	–
CC[N+]1=C(/C=C/C=C/C=C2/N(CCCCCC(=O)N3CCN(CCOCCON([C@H](CCNC(=O)OCc4ccccc4)C(=O)NO)S(=O)(=O)c4ccc(-c5ccc(OC)cc5)cc4)CC3)c3ccc4c(S(=O)(=O)O)cc(S(=O)(=O)O)cc4c3C2(C)C)C(C)(C)c2c1ccc1c(S(=O)(=O)[O-])cc(S(=O)(=O)O)cc21 [Compound 6b]	0.17 ± 0.02 nM	0.6 ± 0.06 nM	–	–	6.5 ± 0.6 nM	3.3 ± 0.1 nM	0.67 ± 0.06 nM	67 ± 3.4 nM	30 ± 2.3 nM	53 ± 4.5 nM
CC[N+]1=C(/C=C/C=C/C=C2\N(CCCCCC(=O)N3CCN(CCOCCON([C@H](CCNC(=O)OCc4ccccc4)C(=O)O)S(=O)(=O)c4ccc(-c5ccc(OC)cc5)cc4)CC3)c3ccc4c(S(=O)(=O)[O-])cc(S(=O)(=O)O)cc4c3C2(C)C)C(C)(C)c2c1ccc1c(S(=O)(=O)O)cc(S(=O)(=O)O)cc21 [Compound 6a]	50 ± 4.3 nM	73.5 ± 5.7 nM	–	–	–	–	–	–	–	–
COc1ccc(-c2ccc(S(=O)(=O)N(OCCOCCN3CCNCC3)[C@H](CCNC(=O)OCc3ccccc3)C(=O)NO)cc2)cc1 [1j]	–	–	–	–	3.2 ± 0.2 nM	1.7 ± 0.14 nM	0.4 ± 0.05 nM	–	10 ± 1 nM	39 ± 3.3 nM
CCC(=O)N1CCN(CCOCCON([C@H](CCNC(=O)OCc2ccccc2)C(=O)NO)S(=O)(=O)c2ccc(-c3ccc(OC)cc3)cc2)CC1 [1k]	24.4 ± 2.5 nM	47.9 ± 4.9 nM	–	–	–	187 ± 11 nM	22 ± 4 nM	1700 ± 305 nM	1260 ± 59 nM	1990 ± 90 nM
